How the values were obtained:
[1] = system: sub-genomic HCV replicon of genotype 1a; test: Activity determination using the ELISA and the sub-genomic replicon 1a cell line (NS5A protein level, W11.8 cells); type: cell-based; conditions: Hepatitis C virus, W11.8, 96 h, drug treatment for four days
Excerpt: Activity Determination Using the ELISA and the Sub-Genomic Replicon 1a Cell Line
The cell line W11.8 containing the sub-genomic HCV replicon of genotype 1a is used to determine the potency of the drugs. The RNA replication in presence of different drug concentrations is indirectly measured in this cell line by the level of NS5A protein content upon drug treatment for four days. It is shown that the level of the NS5A protein correlates well with the level of HCV RNA in the replicon cell line. Cells are split twice a week in order to keep the confluence state below 85% of the culture flask surface area. The culture media used for cell passaging consists of DMEM-10% foetal bovine serum with 100 UI/mL penicillin, 100 μg/mL streptomycin, 2 mM glutamine, 1 mM sodium pyruvate, non-essential amino acids (1×) and 600 μg/mL of G418 final concentrations. Monolayer of the W11.8 cells is trypsinized and cells are counted. Cells are diluted at 50,000 cells/mL with complete DMEM without G418, then approximately 5,000 viable cells (100 μL) are plated per well in a white opaque 96-well microtiter plate. After an incubation period of 2-4 hours at 37° C. in a 5% CO2 incubator, compounds are added at various concentrations. Drugs are resuspended in DMSO at a stock concentration of 10 mM. Then, drugs are serially diluted at twice the final concentration in the same medium. One volume (100 μL) of each drug dilution is then added to each well that contains cells.
A control compound is used as an internal standard for each plate assay. Sixteen wells are used as control (0% inhibition) without drug. […] Values from 100% inhibited wells were averaged and used as the background value. Cells are further incubated for four days at 37° C. in a 5% CO2 incubator. Following the incubation time of four days, the media is removed and wells are washed once with 150 μL of PBS at room temperature for five minutes. Cells are then fixed for five minutes using 150 μL per well of cold (−20° C.) fixative solution (50% methanol/50% acetone mix). Cells are then washed twice with 150 μL of PBS (phosphate buffered saline) per well, following the addition of 150 μL of blocking solution, cells are incubated for one hour at 37° C. to block non-specific sites. The blocking solution is removed and cells are washed twice with 150 μL of PBS per well and once with 150 μL of PBSTS solution (PBS/0.1% Triton X-100/0.02% SDS) per well. Then, 50 μL of mouse monoclonal anti-NS5A antibody (Santa Cruz, Cat. No. sc-52417) is added in each well, diluted 1/1,000 in the blocking solution and incubated at 4° C. overnight. Next day, media is removed and plates are washed five times with 150 μL of PBS per well with five-minute incubations at room temperature. Then 50 μL per well of peroxidase-conjugated donkey anti-mouse antibody (Jackson Immunoresearch, Cat. No. 715-036-150) diluted 1/10,000 in the blocking solution is added and incubated at room temperature for three hours on a shaker (500 rpm). Plates are washed four times with 150 μL of PBSTS solution per well and once with 150 μL of PBS. Then, substrate solution (100 μl, SuperSignal ELISA Pico Chemiluminescent Substrate, Fisher Cat. No. 37069) is added in each well and plates are incubated 60 minutes at room temperature prior to reading the luminescence (relative light units) on the Analyst HT plate reader. The percentage of inhibition at each drug concentration tested (in duplicate) is calculated. […]

[2] = system: HCV 1b genotype; test: Cell-based luciferase reporter HCV (Ib) RNA replication assay (Huh-ET replicon cells); conditions: Hepatitis C virus, 96 h; HCV 1b genotype replicon, 4 days incubation, luciferase readout
Excerpt: Cell-Based Luciferase Reporter HCV (Ib) RNA Replication Assay Cell Culture
Replicon cell lines Huh-5.2 are derived from the Huh-7 hepatocarcinoma cell line are maintained in culture as generally described in Krieger, N; Lohmann, V; Bartenschlager, R. Enhancement of hepatitis C virus RNA replication by cell culture-adaptive mutations. J. Virol. 2001, 75, 4614-4624. The Huh-5.2 cells contain the highly cell culture-adapted replicon I389 Luc-ubi-neo/NS3-375.1 construct that carries, in addition to the neomycin gene, an integrated copy to the firefly luciferase gene (Krieger, N; Lohmann, V; Bartenschlager, R. Enhancement of hepatitis C virus RNA replication by cell culture-adaptive mutations. J. Virol. 2001, 75, 4614-4624). This cell line allows measurement of HCV RNA replication and translation by measuring luciferase activity. It has been previously shown that the luciferase activity tightly follows the replicon RNA level in these cells (Krieger, N; Lohmann, V; Bartenschlager, R. Enhancement of hepatitis C virus RNA replication by cell culture-adaptive mutations. J. Virol. 2001, 75, 4614-4624). The Huh-ET cell line has the same features as those mentioned for Huh-5.2 cell line, except that ET cells are more robust and contain an adaptative mutation in the HCV NS4B gene instead of NS5A. Both cell lines are maintained in cultures at a sub-confluent level (<85%) as the level of replicon RNA is highest in actively proliferating cells. The culture media used for cell passaging consist of DMEM (Gibco BRL Laboratories, Mississauga, ON, Canada) supplemented with 10% foetal bovine serum with 1% penicilin/streptomycin, 1% glutamine, 1% sodium pyruvate, 1% non-essential amino acids, and 180 μg/ml of G418 final concentration. Cells are incubated at 37° C., in an atmosphere of 5% CO2 and passaged twice a week to maintain sub-confluence.
Approximately 3000 viable Huh-ET cells (100 μl) are plated per well in a white opaque 96-well microtiter plate. The cell culture media used for the assay is the same as described above except that it contains no G418 and no phenol red. After an incubation period of 3-4 hours at 37° C. in a 5% CO2 incubator, compounds (100 μl) are added at various concentrations. Cells are then further incubated for 4 days at 37° C. in a 5% CO2 incubator. Thereafter, the culture media is removed and cells are lysed by the addition of 95 μL of the luciferase buffer (luciferin substrate in buffered detergent). Cell lysates are incubated at room temperature and protected from direct light for at least 10 minutes. Plates are read for luciferase counts using a luminometer (Wallac MicroBeta Trilux, Perkin Elmer™, MA, USA).
The 50% inhibitory concentrations (IC50s) for inhibitory effect are determined from dose response curves using eleven concentrations per compound in duplicate. Curves are fitted to data points using nonlinear regression analysis, and IC50s are interpolated from the resulting curve using GraphPad Prism software, version 2.0 (GraphPad Software Inc., San Diego, Calif., USA).
EC50 ranges are presented in micromolar as follows: μM+++<=0.005<++<=5.0<+.

Compound	IC50 [1] [nM]	IC50 [2] [nM]
COC(=O)N[C@H](C(=O)N1CCC[C@H]1c1ncc(C#Cc2ccc(C#Cc3cnc([C@@H]4CCCN4C(=O)[C@@H](NC(=O)OC)C(C)C)[nH]3)cc2)[nH]1)C(C)C	4.8	
COC(=O)N[C@H](C(=O)N1CCC[C@H]1c1ncc(-c2ccc(-c3ccc(-c4cnc([C@@H]5CCCN5C(=O)[C@@H](NC(=O)OC)C(C)C)[nH]4)cc3)cc2)[nH]1)C(C)C	0.05	
COC(=O)N[C@H](C(=O)N1C[C@@H](C)C[C@H]1c1ncc(-c2ccc(-c3ccc(-c4cnc([C@@H]5C[C@H](C)CN5C(=O)[C@@H](NC(=O)OC)C(C)C)[nH]4)cc3)cc2)[nH]1)C(C)C [Compound 1]	0.017	≤ 5
COC(=O)N[C@H](C(=O)N1C[C@@H](C)C[C@H]1c1ncc(C#Cc2ccc(C#Cc3cnc([C@@H]4C[C@H](C)CN4C(=O)[C@@H](NC(=O)OC)C(C)C)[nH]3)cc2)[nH]1)C(C)C [Compound 4]	0.055	≤ 5
COC(=O)N[C@H](C(=O)N1[C@@H](C)CC[C@H]1c1ncc(C#Cc2ccc(C#Cc3cnc([C@@H]4CC[C@H](C)N4C(=O)[C@@H](NC(=O)OC)C(C)C)[nH]3)cc2)[nH]1)C(C)C [drawing 272]	0.24	
